Measurements from patent US9273057B2 (Bristol-Myers Squibb Company, priority 2012, dated 2016).
pIC50: −log10 of the molar value.

Molecular target: CK2A1 (CK2α/β) (Homo sapiens, UniProt P68400)
Assay: CK2 kinase assay, CK2A1 (CK2α/β)
Type: biochemical
Conditions: Table A; read-out: CK2A1 (CK2α/β) (IC50)

Sequence of CK2A1 (CK2α/β) (P68400 whole entry, species assumed): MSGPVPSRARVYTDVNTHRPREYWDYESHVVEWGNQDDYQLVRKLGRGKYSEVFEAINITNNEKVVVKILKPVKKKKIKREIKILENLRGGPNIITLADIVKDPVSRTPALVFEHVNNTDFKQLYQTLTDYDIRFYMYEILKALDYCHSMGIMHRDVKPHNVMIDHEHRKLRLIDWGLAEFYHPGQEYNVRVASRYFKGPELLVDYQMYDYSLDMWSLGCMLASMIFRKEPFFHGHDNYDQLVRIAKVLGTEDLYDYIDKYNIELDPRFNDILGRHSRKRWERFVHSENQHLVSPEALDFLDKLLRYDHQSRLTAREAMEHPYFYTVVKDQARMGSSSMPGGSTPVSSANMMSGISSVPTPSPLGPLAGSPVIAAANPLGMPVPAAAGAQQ
Sequence of CK2A1 (CK2α/β) (P67870 whole entry partner, species assumed): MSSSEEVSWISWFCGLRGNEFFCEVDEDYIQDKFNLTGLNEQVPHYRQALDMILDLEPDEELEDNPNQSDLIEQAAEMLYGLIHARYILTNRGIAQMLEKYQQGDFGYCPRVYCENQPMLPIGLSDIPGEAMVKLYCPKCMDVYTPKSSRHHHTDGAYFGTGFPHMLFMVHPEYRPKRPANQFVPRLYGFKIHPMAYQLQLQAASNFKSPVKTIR

Q: `COC(=O)N[C@@H]1CN(c2cc(C#N)cc(Nc3nc(NC4CC4)c4ncc(C#N)n4n3)c2Cl)C[C@H]1O` (racemic) [Example 9, (+/−) methyl ((3R,4R)-1-(2-chloro-5-cyano-3-((7-cyano-4-(cyclopropylamino)imidazo [2,1-f][1,2,4]triazin-2-yl)amino)phenyl)-4-hydroxy-3-pyrrolidinyl)carbamate] was tested. Which pIC50 did it give?
A: Its pIC50 is 9.18.

Q: How did the pIC50 turn out when `CC(=O)N[C@@H]1CN(c2cc(C#N)cc(Nc3nc(NC4CC4)c4ncc(C#N)n4n3)c2Cl)C[C@H]1O` (racemic) [Example 10, (+/−) N-((3R,4R)-1-(2-chloro-5-cyano-3-((7-cyano-4-(cyclopropylamino)imidazo [2,1-f][1,2,4]triazin-2-yl)amino)phenyl)-4-hydroxy-3-pyrrolidinyl)acetamide] was run?
A: The pIC50 was 9.29.

Q: `COC(=O)N[C@@H]1CN(c2cc(C#N)cc(Nc3nc(NC4CC4)c4ncc(C#N)n4n3)c2Cl)C[C@@H]1C` (racemic) [Example 11, (+/−) methyl ((3S,4S)-1-(2-chloro-5-cyano-3-((7-cyano-4-(cyclopropylamino)imidazo [2,1-f][1,2,4]triazin-2-yl)amino)phenyl)-4-methyl-3-pyrrolidinyl)carbamate] was tested. Which pIC50 did it give?
A: Its pIC50 is 9.17.

Q: `COC(=O)N[C@H]1C[C@H](O)CN(c2cc(C#N)cc(Nc3nc(NC4CC4)c4ncc(C#N)n4n3)c2Cl)C1` (racemic) [Example 17, (+/−) methyl ((3S,5S)-1-(2-chloro-5-cyano-3-((7-cyano-4-(cyclopropylamino)imidazo [2,1-f][1,2,4]triazin-2-yl)amino)phenyl)-5-hydroxy-3-piperidinyl)carbamate] was tested. Which pIC50 did it give?
A: Its pIC50 is 9.23.

Q: `C[C@@H]1CN(c2cc(C#N)cc(Nc3nc(NC4CC4)c4ncc(C#N)n4n3)c2Cl)C[C@@H]1O` (racemic) [Example 19, (+/−) 2-((2-chloro-5-cyano-3-((3R,4R)-3-hydroxy-4-methyl-1-pyrrolidinyl)phenyl)amino)-4-(cyclopropylamino)imidazo [2,1-f][1,2,4]triazine-7-carbonitrile] was tested. Which pIC50 did it give?
A: The pIC50 was 8.90.

Q: With `C[C@@H]1CN(c2cc(C#N)cc(Nc3nc(NC4CC4)c4ncc(C#N)n4n3)c2Cl)C[C@H]1O` (racemic) [Example 20, (+/−) 2-((2-chloro-5-cyano-3-((3S,4R)-3-hydroxy-4-methyl-1-pyrrolidinyl)phenyl)amino)-4-(cyclopropylamino)imidazo [2,1-f][1,2,4]triazine-7-carbonitrile] as the molecule, how does the pIC50 read?
A: Its pIC50 is 8.31.

Q: With `COC(=O)N[C@@H]1CN(c2cc(C#N)cc(Nc3nc(NC4CC4)c4ncc(C#N)n4n3)c2Cl)C[C@H]1C` (racemic) [Example 21, (+/−) methyl ((3S,4R)-1-(2-chloro-5-cyano-3-((7-cyano-4-(cyclopropylamino)imidazo [2,1-f][1,2,4]triazin-2-yl)amino)phenyl)-4-methyl-3-pyrrolidinyl)carbamate] as the molecule, how does the pIC50 read?
A: Its pIC50 is 8.94.

Q: How did the pIC50 turn out when `CN1CCCC12CCN(c1cc(C#N)cc(Nc3nc(NC4CC4)c4ncc(C#N)n4n3)c1Cl)C2` (racemic) [Example 25, (+/−) 2-((2-chloro-5-cyano-3-(1-methyl-1,7-diazaspiro[4.4]non-7-yl)phenyl)amino)-4-(cyclopropylamino)imidazo [2,1-f][1,2,4]triazine-7-carbonitrile] was run?
A: Its pIC50 is 9.31.

Q: `CN1CCC2(CC1)CCN(c1cc(C#N)cc(Nc3nc(NC4CC4)c4ncc(C#N)n4n3)c1Cl)C2` (racemic) [Example 26, (+/−) 2-((2-chloro-5-cyano-3-(8-methyl-2,8-diazaspiro[4.5]dec-2-yl)phenyl)amino)-4-(cyclopropylamino)imidazo [2,1-f][1,2,4]triazine-7-carbonitrile] was tested. Which pIC50 did it give?
A: Its pIC50 is 8.99.

Q: With `CN1CCC2(CCN(c3cc(C#N)cc(Nc4nc(NC5CC5)c5ncc(C#N)n5n4)c3Cl)CC2)C1` (racemic) [Example 27, (+/−) 2-((2-chloro-5-cyano-3-(2-methyl-2,8-diazaspiro[4.5]dec-8-yl)phenyl)amino)-4-(cyclopropylamino)imidazo [2,1-f][1,2,4]triazine-7-carbonitrile] as the molecule, how does the pIC50 read?
A: Its pIC50 is 9.06.

Q: How did the pIC50 turn out when `CNC1CCN(c2cc(C#N)cc(Nc3nc(NC4CC4)c4ncc(C#N)n4n3)c2Cl)C1` (racemic) [Example 28, (+/−) 2-((2-chloro-5-cyano-3-(3-(methylamino)-1-pyrrolidinyl)phenyl)amino)-4-(cyclopropylamino)imidazo [2,1-f][1,2,4]triazine-7-carbonitrile] was run?
A: The pIC50 was 9.24.

Q: With `N#Cc1cc(Nc2nc(NC3CC3)c3ncc(C#N)n3n2)c(Cl)c(N2CCC3(CCCN3)C2)c1` (racemic) [Example 31, (+/−) 2-((2-chloro-5-cyano-3-(1,7-diazaspiro[4.4]non-7-yl)phenyl)amino)-4-(cyclopropylamino)imidazo [2,1-f][1,2,4]triazine-7-carbonitrile] as the molecule, how does the pIC50 read?
A: The pIC50 was 9.21.

Q: With `CCNC(=O)N[C@H]1CN(c2cc(C#N)cc(Nc3nc(NC4CC4)c4ncc(C#N)n4n3)c2Cl)C[C@H]1OC` (racemic) [Example 32, (+/−) 1-((3S,4R)-1-(2-chloro-5-cyano-3-((7-cyano-4-(cyclopropylamino)imidazo [2,1-f][1,2,4]triazin-2-yl)amino)phenyl)-4-methoxy-3-pyrrolidinyl)-3-ethylurea] as the molecule, how does the pIC50 read?
A: Its pIC50 is 9.10.

Q: With `CC(C)(O)C1CN(c2cc(C#N)cc(Nc3nc(NC4CC4)c4ncc(C#N)n4n3)c2Cl)CCO1` (racemic) [Example 33, (+/−) 2-((2-chloro-5-cyano-3-(2-(1-hydroxy-1-methylethyl)-4-morpholinyl)phenyl)amino)-4-(cyclopropylamino)imidazo [2,1-f][1,2,4]triazine-7-carbonitrile] as the molecule, how does the pIC50 read?
A: The pIC50 was 9.27.

Q: With `CN1CCN(c2cc(C#N)cc(Nc3nc(NC4CC4)c4ncc(C#N)n4n3)c2Cl)CC1C(C)(C)O` (racemic) [Example 34, (+/−) 2-((2-chloro-5-cyano-3-(3-(1-hydroxy-1-methylethyl)-4-methyl-1-piperazinyl)phenyl)amino)-4-(cyclopropylamino)imidazo [2,1-f][1,2,4]triazine-7-carbonitrile] as the molecule, how does the pIC50 read?
A: The pIC50 was 9.04.

Q: With `CC1CN(c2cc(C#N)cc(Nc3nc(NC4CC4)c4ncc(C#N)n4n3)c2Cl)CCN1C` (racemic) [Example 35, (+/−) 2-((2-chloro-5-cyano-3-(3,4-dimethyl-1-piperazinyl)phenyl)amino)-4-(cyclopropylamino)imidazo [2,1-f][1,2,4]triazine-7-carbonitrile] as the molecule, how does the pIC50 read?
A: Its pIC50 is 9.42.

Q: With `CC(CO)N1CCN(c2cc(C#N)cc(Nc3nc(NC4CC4)c4ncc(C#N)n4n3)c2Cl)CC1` (racemic) [Example 54, (+/−) 2-((2-chloro-5-cyano-3-(4-(2-hydroxy-1-methylethyl)-1-piperazinyl)phenyl)amino)-4-(cyclopropylamino) imidazo[2,1-f][1,2,4] triazine-7-carbonitrile] as the molecule, how does the pIC50 read?
A: The pIC50 was 8.79.

Q: With `N#Cc1cc(Nc2nc(NC3CC3)c3ncc(C#N)n3n2)c(Cl)c(N2CCN([C@@H]3COC[C@H]3O)CC2)c1` (racemic) [Example 59, (+/−) 2-((2-chloro-5-cyano-3-(4-((3R,4S)-4-hydroxytetrahydro-3-furanyl)-1-piperazinyl)phenyl)amino)-4-(cyclopropylamino) imidazo[2,1-f][1,2,4] triazine-7-carbonitrile] as the molecule, how does the pIC50 read?
A: The pIC50 was 9.23.

Q: With `COCC(C)N1CCN(c2cc(C#N)cc(Nc3nc(NC4CC4)c4ncc(C#N)n4n3)c2Cl)CC1` (racemic) [Example 64, (+/−) 2-((2-chloro-5-cyano-3-(4-(2-methoxy-1-methylethyl)-1-piperazinyl)phenyl)amino)-4-(cyclopropylamino) imidazo[2,1-f][1,2,4] triazine-7-carbonilrile] as the molecule, how does the pIC50 read?
A: Its pIC50 is 9.15.

Q: With `N#Cc1cc(Nc2nc(NC3CC3)c3ncc(C#N)n3n2)c(Cl)c(N2CCN(CC(O)CF)CC2)c1` (racemic) [Example 66, (+/−) 2-((2-chloro-5-cyano-3-(4-(3-fluoro-2-hydroxypropyl)-1-piperazinyl)phenyl)amino)-4-(cyclopropylamino) imidazo[2,1-f][1,2,4] triazine-7-carbonitrile] as the molecule, how does the pIC50 read?
A: Its pIC50 is 9.24.

Q: How did the pIC50 turn out when `CC(O)C(=O)N1CCN(c2cc(C#N)cc(Nc3nc(NC4CC4)c4ncc(C#N)n4n3)c2Cl)CC1` (racemic) [Example 80, (+/−) 2-((2-chloro-5-cyano-3-(4-lactoyl-1-piperazinyl)phenyl)amino)-4-(cyclopropylamino) imidazo[2,1-f][1,2,4] triazine-7-carbonitrile] was run?
A: The pIC50 was 9.33.

Q: With `N#Cc1cc(Nc2nc(NC3CC3)c3ncc(C#N)n3n2)c(Cl)c(N2CCN(C(=O)C3CNC(=O)N3)CC2)c1` (racemic) [Example 81, (+/−)2-((2-chloro-5-cyano-3-(4-((2-oxo-4-imidazolidinyl)carbonyl)-1-piperazinyl)phenyl)amino)-4-(cyclopropylamino) imidazo[2,1-f][1,2,4] triazine-7-carbonitrile] as the molecule, how does the pIC50 read?
A: The pIC50 was 8.74.

Q: With `N#Cc1cc(Nc2nc(NC3CC3)c3ncc(C#N)n3n2)c(Cl)c(N2CCN(C(=O)C3CCCO3)CC2)c1` (racemic) [Example 84, (+/−) 2-((2-chloro-5-cyano-3-(4-(tetrahydro-2-furanylcarbonyl)-1-piperazinyl)phenyl)amino)-4-(cyclopropylamino) imidazo[2,1-f][1,2,4] triazine-7-carbonitrile] as the molecule, how does the pIC50 read?
A: Its pIC50 is 9.30.

Q: How did the pIC50 turn out when `CN1CCCC(C(=O)N2CCN(c3cc(C#N)cc(Nc4nc(NC5CC5)c5ncc(C#N)n5n4)c3Cl)CC2)C1` (racemic) [Example 92, (+/−) 2-((2-chloro-5-cyano-3-(4-((1-methyl-3-piperidinyl)carbonyl)-1-piperazinyl)phenyl)amino)-4-(cyclopropylamino) imidazo[2,1-f][1,2,4] triazine-7-carbonitrile] was run?
A: The pIC50 was 8.95.

Q: How did the pIC50 turn out when `N#Cc1cc(Nc2nc(NC3CC3)c3ncc(C#N)n3n2)c(Cl)c(N2CCN(C(=O)C3CNCCO3)CC2)c1` (racemic) [Example 94, (+/−) 2-(2-chloro-5-cyano-3-(4-(morpholine-2-carbonyl)piperazin-1-yl)phenylamino)-4-(cyclopropylamino) imidazo[1,2-f][1,2,4] triazine-7-carbonitrile] was run?
A: Its pIC50 is 9.02.

Q: With `CCNc1nc(Nc2cc(C#N)cc(N3CCN(C4CCOC4)CC3)c2Cl)nn2c(C#N)cnc12` (racemic) [Example 103, (+/−) 2-((2-chloro-5-cyano-3-(4-(tetrahydro-3-furanyl)-1-piperazinyl)phenyl)amino)-4-(ethylamino)imidazo [2,1-f][1,2,4]triazine-7-carbonitrile] as the molecule, how does the pIC50 read?
A: The pIC50 was 9.08.
